Test results reported in US20220220373A1, “FLUORESCENT PROBES FOR MONOACYLGLYCEROL LIPASE (MAGL)” (Hoffmann-La Roche Inc., priority 2019, published 2022).

What follows are molecules tested against T1, MAGL (Homo sapiens, UniProt Q99685) (assay: 2-AG assay (MAGL inhibitory activity, hydrolysis of 2-arachidonoylglycerol followed by mass spectrometry)). Settings: 50 pM MAGL, 8 μM 2-arachidonoylglycerol, 15 min pre-incubation, 30 min incubation at RT.
T1 sequence (Q99685 1-303): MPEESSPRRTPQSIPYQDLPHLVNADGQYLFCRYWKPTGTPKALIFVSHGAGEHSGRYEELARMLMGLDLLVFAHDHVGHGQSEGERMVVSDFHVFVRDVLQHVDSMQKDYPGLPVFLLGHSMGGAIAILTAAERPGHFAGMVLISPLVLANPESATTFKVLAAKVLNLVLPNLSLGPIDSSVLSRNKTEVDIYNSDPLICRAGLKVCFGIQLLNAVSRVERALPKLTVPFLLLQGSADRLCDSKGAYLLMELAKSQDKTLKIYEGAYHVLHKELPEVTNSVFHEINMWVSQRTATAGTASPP
Type: biochemical
Protocol: Compounds were profiled for MAGL inhibitory activity by determining the enzymatic activity by following the hydrolysis of the natural substrate 2-arachidonoylglycerol (2-AG) resulting in arachidonic acid, which can be followed by mass spectrometry. This assay is hereinafter abbreviated “2-AG assay”.
The 2-AG assay was carried out in 384 well assay plates (PP, Greiner Cat#784201) in a total volume of 20 μL. Compound dilutions were made in 100% DMSO (VWR Chemicals 23500.297) in a polypropylene plate in 3-fold dilution steps to give a final concentration range in the assay from 12.5 μM to 0.8 pM. […] compound dilutions (100% DMSO) were added to 9 μL MAGL in assay buffer (50 mM TRIS (GIBCO, 15567-027), 1 mM EDTA (Fluka, 03690-100 mL), 0.01% (v/v) Tween. After shaking, the plate was incubated for 15 min at RT. To start the reaction, 10 μL 2-arachidonoylglycerol in assay buffer was added. The final concentrations in the assay was 50 pM MAGL and 8 μM 2-arachidonoylglyerol. After shaking and 30 min incubation at RT, the reaction was quenched by the addition of […] of ACN containing 4 μM of d8-arachidonic acid. The amount of arachidonic acid was traced by an online SPE system (Agilent Rapidfire) coupled to a triple quadrupole mass spectrometer (Agilent 6460). A C18 SPE cartridge (G9205A) was used in an ACN/water liquid setup. The mass spectrometer was operated in negative electrospray mode following the mass transitions 303.1→259.1 for arachidonic acid and 311.1→267.0 for d8-arachidonic acid. The activity of the compounds was calculated based on the ratio of intensities [arachidonic acid/d8-arachidonic acid].

SMILES	IC50 [nM]
CC(C)(C)OC(=O)NCCOc1ccc(C(=C2CCN(C(=O)N3CC[C@@H]4OCC(=O)N[C@@H]4C3)CC2)c2ccccc2)cc1 [Example 25, tert-Butyl (2-(4-((1-((4aR,8aS)-3-oxooctahydro-2H-pyrido[4,3-b][1,4]oxazine-6-carbonyl)piperidin-4-ylidene)(phenyl)methyl)phenoxy)ethyl)carbamate]	13
O=C(CCOCCNc1ccc([N+](=O)[O-])c2nonc12)NCCOc1cccc(C(c2ccccc2)C2CCN(C(=O)N3CC[C@@H]4OCC(=O)N[C@@H]4C3)CC2)c1 (stereo partly drawn) [Example 2]	1.2
O=C(CCOCCNc1ccc([N+](=O)[O-])c2nonc12)NCCOc1cccc(C(c2ccccc2)C2CCN(C(=O)N3CCC4OCC(=O)NC4C3)CC2)c1 (single isomer, unassigned) [Example 17, N-[2-[3-[(S or R)-11-1(4aR,8aS)-3-Oxo-4,4a,5,7,8,8a-hexahydropyrido[4,3-b][1,4]oxazine-6-carbonyl]-4-piperidyl]-phenyl-methyl]phenoxy]ethyl]-3-[2-[(4-nitro-2,1,3-benzoxadiazol-7-yl)amino]ethoxy]propanamide]	0.7
O=C1CO[C@H]2CCN(C(=O)N3CCC(=C(c4ccccc4)c4cccc(OCCNc5ccc([N+](=O)[O-])c6nonc56)c4)CC3)C[C@H]2N1 [Example 24]	5.5
O=C(CCOCCNc1ccc([N+](=O)[O-])c2nonc12)NCCOc1cccc(C(c2ccccc2)C2CCN(C(=O)N3CCC4OCC(=O)NC4C3)CC2)c1 (single isomer, unassigned) [Example 18, N-[2-[3-[(R or S)-[1-1(4aR,8aS)-3-Oxo-4,4a,5,7,8,8a-hexahydropyrido[4,3-b][1,4]oxazine-6-carbonyl]-4-piperidyl]-phenyl-methyl]phenoxy]ethyl]-3-12-[(4-nitro-2,1,3-benzoxadiazol-7-yl)amino]ethoxy]propanamide]	7.2
CC(C)(C)OC(=O)NCCOCCOCCOCCC(=O)NCCOc1cccc(C(c2ccccc2)C2CCN(C(=O)N3CC[C@@H]4OCC(=O)N[C@@H]4C3)CC2)c1 (single isomer, unassigned) [Example 19, tert-Butyl N-[2-[2-[2-[3-[2-[3-[(S or R)-[1-[(4aR,8aS)-3-oxo-4,4a,5,7,8,8a-hexahydropyrido[4,3-b][1,4]oxazine-6-carbonyl]-4-piperidyl]-phenyl-methyl]phenoxy]ethylamino]-3-oxo-propoxy]ethoxy]ethoxy]ethyl]carbamate]	2
CC(C)(C)OC(=O)NCCOc1cccc(C(c2ccccc2)C2CCN(C(=O)N3CC[C@@H]4OCC(=O)N[C@@H]4C3)CC2)c1 (single isomer, unassigned) [Example 5, tert-Butyl N-[2-[3-[(S or R)-[1-[(4aR,8aS)-3-oxo-4,4a,5,7,8,8a-hexahydropyrido[4,3-b][1,4]oxazine-6-carbonyl]-4-piperidyl]-phenyl-methyl]phenoxy]ethyl]carbamate]	0.2
CC(C)(C)OC(=O)NCCOCCOCCC(=O)NCCOc1cccc([C@H](c2ccccc2)C2CCN(C(=O)N3CC[C@@H]4OCC(=O)N[C@@H]4C3)CC2)c1 (single isomer, unassigned) [Example 8, tert-Butyl N-[2-[2-[3-[2-[3-[(S or R)-11-1(4aR,8aS)-3-oxo-4,4a,5,7,8,8a-hexahydropyrido[4,3-b][1,4]oxazine-6-carbonyl]-4-piperidyl]-phenyl-methyl]phenoxy]ethylamino]-3-oxo-propoxy]ethoxy]ethyl]carbamate]	1.5
CC(C)(C)OC(=O)NCCOc1cccc(C(=C2CCN(C(=O)N3CC[C@@H]4OCC(=O)N[C@@H]4C3)CC2)c2ccccc2)c1 [Example 23, tert-Butyl (2-(3-((1-((4aR,8aS)-3-oxooctahydro-2H-pyrido[4,3-b][1,4]oxazine-6-carbonyl)piperidin-4-ylidene)(phenyl)methyl)phenoxy)ethyl)carbamate]	5.8
O=C(CCOCCOCCNc1ccc([N+](=O)[O-])c2nonc12)NCCOc1cccc(C(c2ccccc2)C2CCN(C(=O)N3CC[C@@H]4OCC(=O)N[C@@H]4C3)CC2)c1 (single isomer, unassigned) [Example 12, N-[2-[3-[(S or R)-[1-[(4aR,8aS)-3-Oxo-4,4a,5,7,8,8a-hexahydropyrido[4,3-b][1,4]oxazine-6-carbonyl]-4-piperidyl]-phenyl-methyl]phenoxy]ethyl]-3-[2-[2-[(4-nitro-2,1,3-benzoxadiazol-7-yl)amino]ethoxy]ethoxy]propanamide]	0.5
CC(C)(C)OC(=O)NCCOCCC(=O)NCCOc1cccc(C(c2ccccc2)C2CCN(C(=O)N3CC[C@@H]4OCC(=O)N[C@@H]4C3)CC2)c1 (single isomer, unassigned) [Example 14, tert-Butyl N-[2-[3-[2-[3-[(S or R)-[1-[(4aR,8aS)-3-oxo-4,4a,5,7,8,8a-hexahydropyrido[4,3-b][1,4]oxazine-6-carbonyl]-4-piperidyl]-phenyl-methyl]phenoxy]ethylamino]-3-oxo-propoxy]ethyl]carbamate]	1.3
O=C(CCOCCOCCOCCNc1ccc([N+](=O)[O-])c2nonc12)NCCOc1cccc(C(c2ccccc2)C2CCN(C(=O)N3CC[C@@H]4OCC(=O)N[C@@H]4C3)CC2)c1 (stereo partly drawn) [Example 1, 3-(2-(2-(2-((7-Nitrobenzo[c][1,2,5]oxadiazol-4-yl)amino)ethoxy)ethoxy)ethoxy)-N-(2-(3-((1-((4aR,8aS)-3-oxooctahydro-2H-pyrido[4,3-b][1,4]oxazine-6-carbonyl)piperidin-4-yl)(phenyl)methyl)phenoxy)ethyl)propanamide]	1
NCCOCCOCCC(=O)NCCOc1cccc(C(c2ccccc2)C2CCN(C(=O)N3CC[C@@H]4OCC(=O)N[C@@H]4C3)CC2)c1 (single isomer, unassigned) [Example 11, N-[2-[3-[(S or R)-[1-[(4aR,8aS)-3-Oxo-4,4a,5,7,8,8a-hexahydropyrido[4,3-b][1,4]oxazine-6-carbonyl]-4-piperidyl]-phenyl-methyl]phenoxy]ethyl]-3-[2-(2-aminoethoxy)ethoxy]propanamide]	2930
O=C(CCOCCOCCOCCNc1ccc([N+](=O)[O-])c2nonc12)NCCOc1cccc([C@H](c2ccccc2)C2CCN(C(=O)N3CC[C@@H]4OCC(=O)N[C@@H]4C3)CC2)c1 (single isomer, unassigned) [Example 22, N-[2-[3-[(S or R)-11-1(4aR,8aS)-3-oxo-4,4a,5,7,8,8a-hexahydropyrido[4,3-b][1,4]oxazine-6-carbonyl]-4-piperidyl]-phenyl-methyl]phenoxy]ethyl]-3-[2-[2-[2-[(4-nitro-2,1,3-benzoxadiazol-7-yl)amino]ethoxy]ethoxy]ethoxy]propanamide]	0.4
NCCOCCOCCC(=O)NCCOc1cccc(C(c2ccccc2)C2CCN(C(=O)N3CC[C@@H]4OCC(=O)N[C@@H]4C3)CC2)c1 (single isomer, unassigned) [Example 10, N-[2-[3-[(R or S)-[1-[(4aR,8aS)-3-Oxo-4,4a,5,7,8,8a-hexahydropyrido[4,3-b][1,4]oxazine-6-carbonyl]-4-piperidyl]-phenyl-methyl]phenoxy]ethyl]-3-[2-(2-aminoethoxy)ethoxy]propanamide]	7.8
